# Results taken from PubChem BioAssay AID588414 (Sanford-Burnham Center for Chemical Genomics, 2011).
# Activity calls are given as the source filed them.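 How the source made its calls: active means IC50 at or below 20 µM; inactive means the rest.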
# Target: Glucose-6-phosphate 1-dehydrogenase (Homo sapiens) (UniProt P11413)
# Assay: human G6PD enzyme inhibitors, SAR follow-up, selectivity assay for P. falciparum G6PD inhibitor project, biochemical, fluorescence, dose response (AID 588414)
# Details: NADPH-diaphorase-resazurin fluorescence
# Sequence of Glucose-6-phosphate 1-dehydrogenase (Homo sapiens) (P11413 whole entry, looked up): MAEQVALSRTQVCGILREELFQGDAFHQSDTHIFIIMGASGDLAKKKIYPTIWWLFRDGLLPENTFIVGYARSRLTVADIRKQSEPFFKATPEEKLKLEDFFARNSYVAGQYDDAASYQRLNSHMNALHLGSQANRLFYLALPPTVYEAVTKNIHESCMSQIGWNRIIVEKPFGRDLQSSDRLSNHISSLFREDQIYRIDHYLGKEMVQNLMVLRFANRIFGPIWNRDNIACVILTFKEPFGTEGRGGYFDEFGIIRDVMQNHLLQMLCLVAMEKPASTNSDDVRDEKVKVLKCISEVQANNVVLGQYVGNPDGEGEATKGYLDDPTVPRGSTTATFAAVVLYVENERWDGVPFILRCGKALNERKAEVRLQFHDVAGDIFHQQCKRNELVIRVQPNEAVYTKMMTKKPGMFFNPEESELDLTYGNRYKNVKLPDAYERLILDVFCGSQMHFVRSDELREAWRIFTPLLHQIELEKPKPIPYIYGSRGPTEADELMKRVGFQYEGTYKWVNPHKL
row,IC50,Structure (SMILES)
1,> 80 µM (inactive),O=C(Nc1nnc(S(=O)(=O)N2CCCCCC2)s1)c1ccccc1F
2,> 80 µM (inactive),COc1ccc(C(=O)Nc2nnc(S(=O)(=O)N3CCCCCC3)s2)cc1
3,> 80 µM (inactive),O=C(Nc1nnc(S(=O)(=O)N2CCCCCC2)s1)c1ccco1
4,> 80 µM (inactive),CCCN(CCC)CCNC(=O)c1ccc2c(c1)NC(=O)/C(=C\c1ccc(C)cc1)S2
5,> 80 µM (inactive),O=C(Nc1nnc(S(=O)(=O)N2CCCc3ccccc32)s1)c1cccc(F)c1
6,> 80 µM (inactive),Cc1ccccc1C(=O)Nc1nnc(S(=O)(=O)N2CCCc3ccccc32)s1
7,> 80 µM (inactive),O=C(Nc1nnc(S(=O)(=O)N2CCOCC2)s1)c1cccc(F)c1
8,> 80 µM (inactive),Cc1ccc(C(=O)Nc2nnc(S(=O)(=O)N3c4ccccc4CC3C)s2)cc1 (stereo not drawn)
9,> 80 µM (inactive),CCN(CC)CCNC(=O)c1ccc2c(c1)NC(=O)/C(=C\c1ccc(OC)c(OC)c1)S2
10,> 80 µM (inactive),Cc1cccc(N2CCN(CCNC(=O)c3ccc4c(c3)NC(=O)c3ccccc3S4)CC2)c1C
11,> 80 µM (inactive),CN(C)CCNC(=O)c1ccc2c(c1)NC(=O)/C(=C\c1ccccc1F)S2
12,> 80 µM (inactive),O=C(Nc1nnc(S(=O)(=O)N2CCCCCC2)s1)c1cccc(F)c1
13,> 80 µM (inactive),CCOc1ccc(C(=O)Nc2nnc(S(=O)(=O)N3CCCCCC3)s2)cc1
14,> 80 µM (inactive),Cc1cccc(C(=O)Nc2nnc(S(=O)(=O)N3c4ccccc4CC3C)s2)c1 (stereo not drawn)
15,> 80 µM (inactive),O=C(Nc1nnc(S(=O)(=O)N2CCCCCC2)s1)c1ccccc1
16,> 80 µM (inactive),O=C(Nc1nnc(S(=O)(=O)N2CCCCCC2)s1)c1cccc(Cl)c1
17,> 80 µM (inactive),Cc1ccc(C(=O)Nc2nnc(S(=O)(=O)N3CCCCCC3)s2)cc1
18,> 80 µM (inactive),CCCN(CCC)CCNC(=O)c1ccc2c(c1)NC(=O)/C(=C/c1ccccc1)S2
19,> 80 µM (inactive),Cc1cccc(C(=O)Nc2nnc(S(=O)(=O)N3CCC(C)CC3)s2)c1
20,> 80 µM (inactive),COc1cccc(/C=C2/Sc3ccc(C(=O)NCCN4CCCCCC4)cc3NC2=O)c1
21,> 80 µM (inactive),CCN(CC)CCNC(=O)c1ccc2c(c1)NC(=O)/C(=C\c1ccccc1Cl)S2
22,> 80 µM (inactive),O=C(Nc1nnc(S(=O)(=O)N2CCCCCC2)s1)c1ccc(F)cc1
23,> 80 µM (inactive),CCN(CC)CCNC(=O)c1ccc2c(c1)NC(=O)c1ccccc1S2

row,IC50,Structure (SMILES)
1,> 80 µM (inactive),O=C1Nc2cc(C(=O)NCCN3CCCCCC3)ccc2S/C1=C/c1ccccc1Cl
2,> 80 µM (inactive),Cc1cccc(C(=O)Nc2nnc(S(=O)(=O)N3CCCc4ccccc43)s2)c1
3,> 80 µM (inactive),O=C(Nc1nnc(S(=O)(=O)N2CCCCCC2)s1)C1CCCCC1
4,> 80 µM (inactive),CCC(C)N(CCNC(=O)c1ccc2c(c1)NC(=O)c1ccccc1S2)C1CCCCC1 (stereo not drawn)
5,> 80 µM (inactive),CCN(CC)CCNC(=O)c1ccc2c(c1)NC(=O)/C(=C\c1ccc(OC)cc1)S2
6,> 80 µM (inactive),COc1ccc(/C=C2/Sc3ccc(C(=O)NCCN(C)C)cc3NC2=O)cc1
7,> 80 µM (inactive),CCN1CCCC1CNC(=O)c1ccc2c(c1)NC(=O)/C(=C\c1ccccc1F)S2 (stereo not drawn)
8,> 80 µM (inactive),CCN1CCCC1CNC(=O)c1ccc2c(c1)N(Cc1ccccc1Cl)C(=O)c1ccccc1S2 (stereo not drawn)
9,> 80 µM (inactive),CCN(CC)CCNC(=O)c1ccc2c(c1)N(Cc1ccc(C)cc1)C(=O)c1ccccc1S2
10,> 80 µM (inactive),CCN1CCCC1CNC(=O)c1ccc2c(c1)N(Cc1ccc(C(F)(F)F)cc1)C(=O)c1ccccc1S2 (stereo not drawn)
11,> 80 µM (inactive),CCN(CC)CCNC(=O)c1ccc2c(c1)NC(=O)/C(=C\c1cccc(C)c1)S2
12,> 80 µM (inactive),Cc1cccc(C(=O)Nc2nnc(S(=O)(=O)N3CCCCCC3)s2)c1
13,> 80 µM (inactive),O=C1Nc2cc(C(=O)NCCN3CCCC3)ccc2S/C1=C/c1ccccc1Cl
14,> 80 µM (inactive),COc1cccc(/C=C2/Sc3ccc(C(=O)NCCN4CCCC4)cc3NC2=O)c1
15,> 80 µM (inactive),O=C(Nc1nnc(S(=O)(=O)N2CCCCC2)s1)c1cccc(F)c1
16,> 80 µM (inactive),CC1Cc2ccccc2N1S(=O)(=O)c1nnc(NC(=O)c2cccc(F)c2)s1 (stereo not drawn)
17,> 80 µM (inactive),CCN(CCNC(=O)c1ccc2c(c1)N(CC)C(=O)c1ccccc1S2)c1ccccc1
18,> 80 µM (inactive),COc1ccc(C(=O)Nc2nnc(S(=O)(=O)N3CCCCCC3)s2)cc1OC
19,> 80 µM (inactive),CCN1CCCC1CNC(=O)c1ccc2c(c1)N(Cc1cccc(F)c1)C(=O)c1ccccc1S2 (stereo not drawn)
20,> 80 µM (inactive),COc1ccc(/C=C2/Sc3ccc(C(=O)NCCN4CCCCCC4)cc3NC2=O)cc1
21,> 80 µM (inactive),COc1cccc(C(=O)Nc2nnc(S(=O)(=O)N3CCCCCC3)s2)c1
22,> 80 µM (inactive),CCN1CCCC1CNC(=O)c1ccc2c(c1)NC(=O)/C(=C/c1ccccc1F)S2 (stereo not drawn)
23,> 80 µM (inactive),Cc1ccc(CN2C(=O)c3ccccc3Sc3ccc(C(=O)NCCN(C)C)cc32)cc1

row,IC50,Structure (SMILES)
1,> 80 µM (inactive),CCN1CCCC1CNC(=O)c1ccc2c(c1)N(Cc1ccccc1F)C(=O)c1ccccc1S2 (stereo not drawn)
2,> 80 µM (inactive),CCN1CCCC1CNC(=O)c1ccc2c(c1)NC(=O)c1ccccc1S2 (stereo not drawn)
3,> 80 µM (inactive),CCN(CC)CCNC(=O)c1ccc2c(c1)NC(=O)/C(=C\c1ccccc1F)S2
4,> 80 µM (inactive),Cc1ccccc1C(=O)Nc1nnc(S(=O)(=O)N2CCCCCC2)s1
5,> 80 µM (inactive),COc1ccc(/C=C2/Sc3ccc(C(=O)NCCN4CCCC4)cc3NC2=O)cc1
6,> 80 µM (inactive),Cc1ccc(C(=O)Nc2nnc(S(=O)(=O)N3CCCc4ccccc43)s2)cc1
7,> 80 µM (inactive),CCN(CCNC(=O)c1ccc2c(c1)NC(=O)c1ccccc1S2)c1ccccc1
8,> 80 µM (inactive),Cc1cccc(/C=C2/Sc3ccc(C(=O)NCCN4CCCC4)cc3NC2=O)c1
9,> 80 µM (inactive),CCN(CCNC(=O)c1ccc2c(c1)N(Cc1cc(C)ccc1C)C(=O)c1ccccc1S2)c1ccccc1
10,> 80 µM (inactive),CC1Cc2ccccc2N1S(=O)(=O)c1nnc(NC(=O)c2cccc(Br)c2)s1 (stereo not drawn)
11,> 80 µM (inactive),Cc1cccc(C(=O)Nc2nnc(S(=O)(=O)N3CCOCC3)s2)c1
12,> 80 µM (inactive),O=C1Nc2cc(C(=O)NCCN3CCCCCC3)ccc2S/C1=C/c1ccccc1F
13,> 80 µM (inactive),O=C(Nc1nnc(S(=O)(=O)N2CCCCCC2)s1)c1cccc(Br)c1
14,> 80 µM (inactive),O=C1Nc2cc(C(=O)NCCN3CCCC3)ccc2S/C1=C/c1ccccc1F
15,> 80 µM (inactive),CN(C)CCNC(=O)c1ccc2c(c1)NC(=O)/C(=C\c1cccc(Cl)c1)S2
16,> 80 µM (inactive),CCN(CC)CCNC(=O)c1ccc2c(c1)NC(=O)/C(=C/c1ccccc1)S2
17,> 80 µM (inactive),CCN1CCCC1CNC(=O)c1ccc2c(c1)NC(=O)/C(=C\c1ccccc1Cl)S2 (stereo not drawn)
18,> 80 µM (inactive),CCN(CC)CCNC(=O)c1ccc2c(c1)N(Cc1ccccc1Cl)C(=O)c1ccccc1S2
19,> 80 µM (inactive),CCN(CC)CCNC(=O)c1ccc2c(c1)N(Cc1cc(C)ccc1C)C(=O)c1ccccc1S2
20,> 80 µM (inactive),COc1ccccc1C(=O)Nc1nnc(S(=O)(=O)N2CCCCCC2)s1
21,> 80 µM (inactive),CCN1CCCC1CNC(=O)c1ccc2c(c1)NC(=O)/C(=C\c1ccc(C)cc1)S2 (stereo not drawn)
22,> 80 µM (inactive),CN(CCNC(=O)c1ccc2c(c1)NC(=O)c1ccccc1S2)C1CCCCC1
